Measurements as given in patent publication US20050112075A1, “Reduction of hair growth” (priority 2003, published 2005).

System: Human hair follicles in growth phase (anagen)
Experiment: Human hair follicle growth assay
Format: cell-based
Conditions: for Hair follicle length increase (mm), Treated: day 0 to day 7 in culture
Procedure: Human hair Follicle Growth Assay:
Human hair follicles in growth phase (anagen) were isolated from face-lift tissue (obtained from plastic surgeons) under dissecting scope using a scalpel and watchmakers forceps. The skin was sliced into thin strips exposing 2-3 rows of follicles that could readily be dissected. Follicles were placed into 0.5 ml William's E medium (Life Technologies, Gaithersburg, Md.) supplemented with 2 mM L-glutamine, 10 μg/ml insulin, 10 ng/ml hydrocortisone, 100 units of penicillin, 0.1 mg/ml streptomycin and 0.25 μg/ml amphotericin B. The follicles were incubated in 24-well plates (1 follicle/well) at 37° C. in an atmosphere of 5% CO2 and 95% air. Compounds are dissolved into dimethyl sulfoxide as 100-fold stock solution. The control hair follicles were treated with dimethyl sulfoxide without prostaglandin. The follicles were photographed in the 24-well plates under the dissecting scope at a power of 10×. Typically, image recordings were made on day 0 (day follicles were placed in culture), and again on day 7. The length of hair follicle was assessed using an image analysis software system. The growth of hair fiber was calculated by the subtracting the follicle length on day 0 from that determined on day 7.

[1] = dose 1 μM, dose-dependence study
[2] = dose 5 μM, dose-dependence study
[3] = dose 10 μM, dose-dependence study
[4] = dose 30 μM, vs dimethyl sulfoxide control
[5] = dose 50 μM, vs dimethyl sulfoxide control

Row | SMILES | % Reduction of human hair follicle growth [1] [%] | Growth of follicle (mm), Treated [1] [mm] | % Reduction of human hair follicle growth [2] [%] | Growth of follicle (mm), Treated [2] [mm] | % Reduction of human hair follicle growth [3] [%] | Growth of follicle (mm), Treated [3] [mm] | Hair follicle length increase (mm), Treated (dose 30 μM) [mm] | % Reduction of human hair follicle growth [4] [%] | Hair follicle length increase (mm), Treated (dose 50 μM) [mm] | % Reduction of human hair follicle growth [5] [%] | further results
1 | CCCCC[C@H](O)C/C=C1/C(=O)C=C[C@@H]1C/C=C\CCCC(=O)O [Δ^12-PGJ2] | 0.7 | 1.40 ± 0.44 | 10.6 | 1.26 ± 0.38 | 77.3 | 0.32 ± 0.15 | 0.29 ± 0.46 | 84.6 ± 24 | – | – | –
2 | CCCCC[C@H](O)/C=C/[C@H]1C(=O)C[C@H](O)[C@@H]1C/C=C\CCCC(=O)O [PGD2, prostaglandin D2] | 4.4 | 1.51 ± 0.28 | 12.7 | 1.38 ± 0.30 | 38.0 | 0.98 ± 0.32 | 0.24 ± 0.10 | 87.3 ± 5.0 | – | – | Hair growth inhibition profile (dose dependence, in words): dose dependent; Reduction of human hair follicle growth (in words): significant reduction of human hair follicle growth
3 | CCCCC[C@](C)(O)/C=C/[C@H]1C(=O)C[C@H](O)[C@@H]1C/C=C\CCCC(=O)O [15(S)-15-Methyl PGD2] | – | – | – | – | – | – | – | – | – | – | Hair follicle length increase (mm), Treated (dose 100 μM): 0.08 ± 0.06 mm; % Reduction of human hair follicle growth (dose 100 μM, vs dimethyl sulfoxide control): 92.7 ± 5.5%
4 | CCCCCC=CC=C1CCC(=O)C1C/C=C\CCCC(=O)O (centres unmarked) [9,10-Dihydro-15-deoxy-^Δ12,14-PGJ2, 9,10-dihydro-15-deoxy-Δ^12,14-PGJ2] | – | – | – | – | – | – | – | – | 0.02 ± 0.03 | 98.8 ± 1.9 | –
5 | CCCCC/C=C/C=C1/C(=O)C=C[C@@H]1C/C=C\CCCC(=O)O [15-Deoxy-Δ^12,14-PGJ2] | 0 | 1.42 ± 0.37 | 34.8 | 0.21 ± 0.13 | 94.3 | 0.08 ± 0.07 | 0.10 ± 0.09 | 94.7 ± 5.0 | – | – | –
6 | CCCCC[C@@](C)(O)/C=C/[C@H]1C(=O)C[C@H](O)[C@@H]1C/C=C\CCCC(=O)O [15(R)-15-Methyl PGD2] | – | – | – | – | – | – | – | – | 0.04 ± 0.05 | 97.5 ± 3.1 | –
7 | O=C(O)CCC/C=C\C[C@H]1[C@@H](O)CC(=O)[C@@H]1/C=C/[C@@H](O)CCc1ccccc1 [17-Phenyl trinor PGD2] | – | – | – | – | – | – | – | – | 0.10 ± 0.12 | 93.8 ± 7.4 | –
8 | C=C1C[C@H](O)[C@H](C/C=C\CCCC(=O)O)[C@H]1/C=C/[C@@H](O)CCCCC [11-Deoxy-11-methylene PGD2] | – | – | – | – | – | – | – | – | 1.11 ± 0.14 | 36.9 ± 8.0 | –
9 | CCCCC(C)(C)[C@H](O)/C=C/[C@H]1C(=O)C[C@H](O)[C@@H]1C/C=C\CCCC(=O)O [16,16-Dimethyl PGD2] | – | – | – | – | – | – | – | – | 0.10 ± 0.05 | 94.3 ± 2.8 | –
10 | CCCCC[C@H](O)/C=C/[C@H]1C(=O)C=C[C@@H]1C/C=C\CCCC(=O)O [PGJ2] | 9.5 | 1.43 ± 0.34 | 34.8 | 1.03 ± 0.35 | 68.4 | 0.50 ± 0.29 | 0.16 ± 0.25 | 91.5 ± 13 | – | – | Hair growth inhibition profile (dose dependence, in words): dose dependent; Reduction of human hair follicle growth (in words): reduce hair growth
11 | CCCCC/C=C/C=C1/C(=O)C[C@H](O)[C@@H]1C/C=C\CCCC(=O)O [15-Deoxy-Δ^12,14-PGD2] | – | – | – | – | – | – | – | – | 0.10 ± 0.08 | 94.3 ± 4.5 | –
